# Laboratory results published in PubChem BioAssay (NCI).
#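 Cells were grown in 96-well plates and exposed to each compound for 48 hours at five concentrations; endpoints were interpolated linearly between bracketing concentrations, or set to the highest concentration if not reached. TGI: total growth inhibition.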
# Legend:
# Assay in all cases: NCI tumour cell line growth inhibition, 48 h
# [1] = system: NCI-H23 lung
# [2] = system: T-47D breast
# [3] = system: HS 578T breast
# [4] = system: SW-620 colon
# [5] = system: RPMI-8226 leukemia
# [6] = system: OVCAR-3 ovarian
# [7] = system: BT-549 breast
# [8] = system: 786-0 renal
# [9] = system: SK-MEL-5 melanoma
# [10] = system: UO-31 renal
# [11] = system: ACHN renal
# [12] = system: OVCAR-8 ovarian
# [13] = system: UACC-257 melanoma
# [14] = system: SR leukemia
# [15] = system: MDA-MB-231 breast
# [16] = system: CCRF-CEM leukemia
# [17] = system: HCT-116 colon
# [18] = system: K-562 leukemia
# [19] = system: MDA-MB-435
# [20] = system: U251 CNS
# [21] = system: SK-MEL-28 melanoma
# [22] = system: MDA-N
# [23] = system: NCI-H522 lung
# [24] = system: OVCAR-5 ovarian
# [25] = system: NCI-H460 lung
# [26] = system: SK-MEL-2 melanoma
# [27] = system: SF-268 CNS
# [28] = system: RXF 393 renal
# [29] = system: SNB-19 CNS
# [30] = system: HOP-92 NSCLC
# [31] = system: MCF7 breast
# [32] = system: SF-295 CNS
# [33] = system: HCT-15 colon
# [34] = system: SK-OV-3 ovarian
# [35] = system: NCI-H226 lung
# [36] = system: UACC-62 melanoma
# [37] = system: SN12C renal
# [38] = system: CAKI-1 renal
# [39] = system: HCC-2998 colon
# [40] = system: NCI/ADR-RES ovarian
# [41] = system: HOP-62 NSCLC
# [42] = system: IGROV1 ovarian
# [43] = system: OVCAR-4 ovarian
# [44] = system: M14 melanoma
# [45] = system: SNB-75 CNS
# [46] = system: SF-539 CNS
# [47] = system: TK-10 renal
# [48] = system: DU-145 prostate
# [49] = system: COLO 205 colon
# [50] = system: MOLT-4 leukemia
# [51] = system: HT29 colon
# [52] = system: A498 renal
# [53] = system: A549 NSCLC
# [54] = system: HL-60(TB) leukemia
# [55] = system: KM12 colon
# [56] = system: PC-3 prostate
# [57] = system: MALME-3M melanoma
# [58] = system: EKVX NSCLC
# [59] = system: LOX IMVI melanoma
compound,measurement,setting,value
CCCC(=O)Nc1cc(/C=C/C(=O)N2CC(CCl)c3c2cc([N+](=O)[O-])c2ccccc32)n(C)c1 (stereo unspecified),TGI,[1],> 100 µM
same,TGI,[2],> 100 µM
same,TGI,[3],> 100 µM
same,TGI,[4],> 100 µM
same,TGI,[5],> 100 µM
same,TGI,[6],> 100 µM
same,TGI,[7],> 100 µM
same,TGI,[8],> 100 µM
same,TGI,[9],> 100 µM
same,TGI,[10],> 100 µM
same,TGI,[11],> 100 µM
same,TGI,[12],> 100 µM
same,TGI,[13],> 100 µM
same,TGI,[14],> 100 µM
same,TGI,[15],> 100 µM
same,TGI,[16],> 100 µM
same,TGI,[17],> 100 µM
same,TGI,[18],> 100 µM
same,TGI,[19],> 100 µM
same,TGI,[20],> 100 µM
same,TGI,[21],> 100 µM
same,TGI,[22],> 100 µM
same,TGI,[23],> 100 µM
same,TGI,[24],> 100 µM
same,TGI,[25],> 100 µM
same,TGI,[26],> 100 µM
same,TGI,[27],> 100 µM
same,TGI,[28],> 100 µM
same,TGI,[29],> 100 µM
same,TGI,[30],> 100 µM
same,TGI,[31],> 100 µM
same,TGI,[32],> 100 µM
same,TGI,[33],> 100 µM
same,TGI,[34],> 100 µM
same,TGI,[35],> 100 µM
same,TGI,[36],> 100 µM
same,TGI,[37],> 100 µM
same,TGI,[38],> 100 µM
same,TGI,[39],> 100 µM
same,TGI,[40],> 100 µM
same,TGI,[41],> 100 µM
same,TGI,[42],> 100 µM
same,TGI,[43],> 100 µM
same,TGI,[44],> 100 µM
same,TGI,[45],97.7 µM
same,TGI,[46],> 100 µM
same,TGI,[47],> 100 µM
same,TGI,[48],> 100 µM
same,TGI,[49],> 100 µM
same,TGI,[50],> 100 µM
same,TGI,[51],> 100 µM
same,TGI,[52],> 87.9 µM
same,TGI,[53],> 100 µM
same,TGI,[54],27.2 µM
same,TGI,[55],> 82.6 µM
same,TGI,[56],> 100 µM
CCOC(=O)c1cn(CC)c2cc3c(cc2c1=O)CCS3(=O)=O,TGI,[1],> 100 µM
same,TGI,[2],> 100 µM
same,TGI,[3],> 100 µM
same,TGI,[4],> 100 µM
same,TGI,[6],> 100 µM
same,TGI,[7],> 100 µM
same,TGI,[8],> 100 µM
same,TGI,[9],> 100 µM
same,TGI,[10],> 100 µM
same,TGI,[11],> 100 µM
same,TGI,[57],> 100 µM
same,TGI,[12],> 100 µM
same,TGI,[14],> 100 µM
same,TGI,[15],> 100 µM
same,TGI,[16],> 100 µM
same,TGI,[17],> 100 µM
same,TGI,[18],> 100 µM
same,TGI,[19],> 100 µM
same,TGI,[20],> 100 µM
same,TGI,[21],> 100 µM
same,TGI,[22],> 100 µM
same,TGI,[24],> 100 µM
same,TGI,[25],> 100 µM
same,TGI,[26],> 100 µM
same,TGI,[27],> 100 µM
same,TGI,[58],> 100 µM
same,TGI,[28],> 100 µM
same,TGI,[29],> 100 µM
same,TGI,[30],> 100 µM
same,TGI,[31],> 100 µM
same,TGI,[32],> 100 µM
same,TGI,[33],> 100 µM
same,TGI,[34],> 100 µM
same,TGI,[35],> 100 µM
same,TGI,[36],> 100 µM
same,TGI,[37],> 100 µM
same,TGI,[39],> 100 µM
same,TGI,[40],> 100 µM
same,TGI,[41],> 100 µM
same,TGI,[42],> 100 µM
same,TGI,[44],> 100 µM
same,TGI,[46],> 100 µM
same,TGI,[47],> 100 µM
same,TGI,[48],> 100 µM
same,TGI,[50],> 100 µM
same,TGI,[51],> 100 µM
same,TGI,[52],> 100 µM
same,TGI,[53],> 100 µM
same,TGI,[54],> 100 µM
same,TGI,[55],> 100 µM
same,TGI,[56],> 100 µM
COP(=O)(OC)c1ccc(NCc2cc(O)ccc2O)cc1,TGI,[1],> 75.8 µM
same,TGI,[2],70.1 µM
same,TGI,[3],> 63.8 µM
same,TGI,[4],> 100 µM
same,TGI,[5],62.4 µM
same,TGI,[6],16.5 µM
same,TGI,[7],36.9 µM
same,TGI,[8],58.1 µM
same,TGI,[9],47.2 µM
same,TGI,[10],29.3 µM
same,TGI,[59],> 75.4 µM
same,TGI,[11],32.2 µM
same,TGI,[57],39.1 µM
same,TGI,[12],> 71.2 µM
same,TGI,[13],> 56.1 µM
same,TGI,[14],> 83.4 µM
same,TGI,[15],> 57.8 µM
same,TGI,[16],> 95.3 µM
same,TGI,[17],> 59.7 µM
same,TGI,[18],> 96.8 µM
same,TGI,[19],74.1 µM
same,TGI,[20],> 72.1 µM
same,TGI,[21],> 70.2 µM
same,TGI,[22],> 63.2 µM
same,TGI,[23],> 71.8 µM
same,TGI,[24],> 60.1 µM
same,TGI,[25],45.4 µM
same,TGI,[26],> 87.8 µM
same,TGI,[27],43.6 µM
same,TGI,[58],56.4 µM
same,TGI,[28],74.9 µM
same,TGI,[29],> 100 µM
same,TGI,[30],45.5 µM
same,TGI,[31],99.3 µM
same,TGI,[32],35.2 µM
same,TGI,[33],50.2 µM
same,TGI,[34],> 100 µM
same,TGI,[35],> 77.9 µM
same,TGI,[36],43.9 µM
same,TGI,[37],> 70.6 µM
same,TGI,[38],34.6 µM
same,TGI,[39],51.6 µM
same,TGI,[40],> 84.5 µM
same,TGI,[41],> 84.7 µM
same,TGI,[42],> 67.1 µM
same,TGI,[43],> 59 µM
same,TGI,[44],> 61.1 µM
same,TGI,[45],> 77.7 µM
same,TGI,[46],46.1 µM
same,TGI,[47],53.9 µM
same,TGI,[48],> 90.5 µM
same,TGI,[49],> 64.6 µM
same,TGI,[50],> 86.3 µM
same,TGI,[51],56.3 µM
same,TGI,[52],> 100 µM
same,TGI,[53],> 100 µM
same,TGI,[54],> 92.2 µM
same,TGI,[55],38.4 µM
same,TGI,[56],> 100 µM
